According to ChEMBL document CHEMBL1201862, “PubChem BioAssay data set” (2004):
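Assay format: 96-well plates, 48-hour exposure. GI50 marks 50% less growth.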 Calls of active or inactive are those of the source. Rule as the data show it: active = GI50 up to about 1.1 µM and inactive = higher.

Key:
Assay in all cases: NCI-60 cell line screen, 48 h
[1] = test system: A498
[2] = test system: A549
[3] = test system: DU-145
[4] = test system: HCT-15
[5] = test system: HT-29
[6] = test system: IGROV-1
[7] = test system: MDA-MB-231
[8] = test system: MDA-MB-435
[9] = test system: MDA-N
[10] = test system: Malme-3M
[11] = test system: OVCAR-4
[12] = test system: PC-3
[13] = test system: RPMI-8226
[14] = test system: SF-539
[15] = test system: SK-MEL-28
[16] = test system: SK-MEL-5
[17] = test system: SNB-75
[18] = test system: SR
[19] = test system: T47D
[20] = test system: TK-10

Structure (SMILES) | GI50 [1] | GI50 [2] | GI50 [3] | GI50 [4] [µM] | GI50 [5] | GI50 [6] | GI50 [7] | GI50 [8] | GI50 [9] | GI50 [10] | GI50 [11] | GI50 [12] | GI50 [13] | GI50 [14] | GI50 [15] | GI50 [16] | GI50 [17] | GI50 [18] | GI50 [19] | GI50 [20]
C[Si](C)(C)CCOCN(C(=O)C1=CCC2(CC1)OCCO2)c1ccccc1I | 12.4 µM (inactive) | 23.6 µM (inactive) | 25.4 µM (inactive) | 17.8 | 34.3 µM (inactive) | 24.6 µM (inactive) | 22.8 µM (inactive) | 13.9 µM (inactive) | 20.6 µM (inactive) | 35.7 µM (inactive) | 21.1 µM (inactive) | 12.6 µM (inactive) | 11.9 µM (inactive) | 22.1 µM (inactive) | 19.4 µM (inactive) | 11.3 µM (inactive) | 17.7 µM (inactive) | 15.8 µM (inactive) | 12.8 µM (inactive) | 27.6 µM (inactive)
N#Cc1c(-c2ccc(Cl)cc2)c2c([nH]c1=O)-c1cc([N+](=O)[O-])ccc1CCC2 | 16.1 µM (inactive) | 18.8 µM (inactive) | 35.8 µM (inactive) | 14.3 | 25.4 µM (inactive) | 21 µM (inactive) | 22.4 µM (inactive) | 29.9 µM (inactive) | 26.7 µM (inactive) | 25.7 µM (inactive) | 19.6 µM (inactive) | 29.4 µM (inactive) | 86.7 µM (inactive) | 17.9 µM (inactive) | 21.2 µM (inactive) | 16.6 µM (inactive) | 23.3 µM (inactive) | 28.4 µM (inactive) | 30.9 µM (inactive) | 34.8 µM (inactive)
COc1ccc2nc3cc(Cl)ccc3c(NCCCN(CCCl)CCCl)c2c1 | 0.0163 µM (active) | < 0.0122 µM (active) | 0.0121 µM (active) | 0.0253 | 0.0119 µM (active) | 0.0324 µM (active) | 0.0316 µM (active) | 0.0323 µM (active) | 0.0318 µM (active) | 0.0841 µM (active) | 0.0845 µM (active) | < 0.01 µM (active) | < 0.01 µM (active) | 0.0111 µM (active) | 0.197 µM (active) | 0.034 µM (active) | 0.177 µM (active) | < 0.01 µM (active) | < 0.01 µM (active) | 0.452 µM (active)
Cc1cccc(-c2cccc(COCc3cccc(-c4cccc(CO)n4)n3)n2)n1 | > 50 µM (inactive) | > 50 µM (inactive) | > 50 µM (inactive) | 35.2 | 40.8 µM (inactive) | 13 µM (inactive) | 24.2 µM (inactive) | > 50 µM (inactive) | > 50 µM (inactive) |  | > 50 µM (inactive) | 18.5 µM (inactive) | 33.3 µM (inactive) | > 50 µM (inactive) | > 50 µM (inactive) | 11.7 µM (inactive) | > 50 µM (inactive) | > 50 µM (inactive) | 31.2 µM (inactive) | 32.5 µM (inactive)
COc1ccc(COCC[C@H](C)OC2OC(CO[Si](C)(C)C(C)(C)C)C(O)C(O)C2O)cc1 (stereo partly drawn) | > 100 µM (inactive) | > 100 µM (inactive) | > 100 µM (inactive) | > 100 | > 100 µM (inactive) | > 100 µM (inactive) | > 100 µM (inactive) | > 100 µM (inactive) | > 100 µM (inactive) | > 100 µM (inactive) | > 100 µM (inactive) | 72.9 µM (inactive) | > 100 µM (inactive) | > 100 µM (inactive) | > 100 µM (inactive) | > 100 µM (inactive) | 44.2 µM (inactive) | > 100 µM (inactive) | > 100 µM (inactive) | > 100 µM (inactive)
COC(=O)c1sc2c(c1C(=O)OC)/C(=N/c1ccc(OC)cc1)S/C2=N\c1ccc(OC)cc1 | 1.65 µM (inactive) | 1.31 µM (inactive) | 0.525 µM (active) | 0.452 | 0.522 µM (active) | 1.2 µM (inactive) | 0.853 µM (active) | 0.785 µM (active) | 1.15 µM (inactive) | 1.74 µM (inactive) | 1.35 µM (inactive) | 0.462 µM (active) | 0.275 µM (active) | 0.274 µM (active) | 1.37 µM (inactive) | 1.21 µM (inactive) | 0.787 µM (active) | 0.485 µM (active) | 0.982 µM (active) | 1.62 µM (inactive)
CC1=NN(c2nc(N)nc(/C(C#N)=C\c3cccc([N+](=O)[O-])c3)n2)C(C)(C)C1 | > 23 µM (inactive) | 12.3 µM (inactive) | 12.7 µM (inactive) | 13.2 | 11.7 µM (inactive) | 5.05 µM (inactive) | 9.29 µM (inactive) | 11.2 µM (inactive) | 13.2 µM (inactive) | 16.9 µM (inactive) | 10 µM (inactive) | 11.5 µM (inactive) | 5.65 µM (inactive) | 8.2 µM (inactive) | 19.1 µM (inactive) | 20.5 µM (inactive) | 6.68 µM (inactive) | 30.1 µM (inactive) | 11 µM (inactive) | 15.7 µM (inactive)
COC(=O)c1cc2ccc(OC(C)=O)c(OC(C)=O)c2cn1 | 14 µM (inactive) | 21.2 µM (inactive) | 24.7 µM (inactive) | 20.4 | 23.9 µM (inactive) | 18.6 µM (inactive) | 4.01 µM (inactive) | 1.73 µM (inactive) | 1.5 µM (inactive) | 8.07 µM (inactive) | 16.7 µM (inactive) | 20.7 µM (inactive) | 2.16 µM (inactive) | 19.1 µM (inactive) | 19 µM (inactive) | 16.1 µM (inactive) | 20 µM (inactive) | 2.65 µM (inactive) | > 10 µM (inactive) | 20.6 µM (inactive)
O=c1[nH]c2cc([N+](=O)[O-])c(N(CCO)CCO)c([N+](=O)[O-])c2[nH]1 | 22.2 µM (inactive) | 35.2 µM (inactive) | 39.4 µM (inactive) | 31.3 | 30.3 µM (inactive) | 65.5 µM (inactive) | 52.6 µM (inactive) | 28.7 µM (inactive) | 33.7 µM (inactive) | 61.2 µM (inactive) | 36 µM (inactive) | 44.4 µM (inactive) | 26.7 µM (inactive) | 23.8 µM (inactive) | 29.4 µM (inactive) | 17.5 µM (inactive) | 23.6 µM (inactive) | 24.1 µM (inactive) | 19.5 µM (inactive) | 
O=[N+]([O-])c1ccc2c(c1)N=C1OC(c3c[nH]c4ccc(COc5ccccc5)cc34)C(O)=C1N2 (stereo not drawn) | > 100 µM (inactive) | > 100 µM (inactive) | > 100 µM (inactive) | > 100 | > 100 µM (inactive) | > 100 µM (inactive) | 56.6 µM (inactive) | > 100 µM (inactive) | > 100 µM (inactive) | > 100 µM (inactive) | > 100 µM (inactive) | > 100 µM (inactive) | > 100 µM (inactive) | > 100 µM (inactive) | > 100 µM (inactive) | 37.5 µM (inactive) | 25.1 µM (inactive) | 7.71 µM (inactive) | > 100 µM (inactive) | 59.2 µM (inactive)
CCOC(=O)c1c(N2CCOCC2)[nH]c(=O)c(C(c2ccc(OC)cc2)c2c(O)c(C(=O)OCC)c(N3CCOCC3)[nH]c2=O)c1O | > 100 µM (inactive) | > 100 µM (inactive) | > 100 µM (inactive) | > 100 | > 100 µM (inactive) |  | > 100 µM (inactive) | > 100 µM (inactive) | > 100 µM (inactive) | > 100 µM (inactive) | > 100 µM (inactive) | > 100 µM (inactive) | > 100 µM (inactive) | > 100 µM (inactive) | > 100 µM (inactive) | > 100 µM (inactive) | > 100 µM (inactive) | > 100 µM (inactive) | > 100 µM (inactive) | > 100 µM (inactive)
Nc1ccccc1C(=O)CC1OC(=O)c2ccccc21 (stereo not drawn) | 43.2 µM (inactive) | 65.6 µM (inactive) | 51.4 µM (inactive) | 86.5 | > 100 µM (inactive) | > 100 µM (inactive) | > 100 µM (inactive) | 57.4 µM (inactive) | 78.7 µM (inactive) | 50.5 µM (inactive) | 65.5 µM (inactive) | 41.7 µM (inactive) | 38.1 µM (inactive) | 36 µM (inactive) | > 100 µM (inactive) |  | 23 µM (inactive) | 46.5 µM (inactive) | 81.8 µM (inactive) | > 100 µM (inactive)
Nc1nccc(NCC2(CO)CCC2)n1 | > 100 µM (inactive) | > 100 µM (inactive) | > 100 µM (inactive) | > 100 | > 100 µM (inactive) | > 100 µM (inactive) | > 100 µM (inactive) | > 100 µM (inactive) | > 100 µM (inactive) | > 100 µM (inactive) |  | > 100 µM (inactive) | > 100 µM (inactive) | > 100 µM (inactive) | > 100 µM (inactive) | > 100 µM (inactive) | > 100 µM (inactive) | > 100 µM (inactive) | > 100 µM (inactive) | 36.7 µM (inactive)
O=C(/C=C/c1ccc(/C=C/C(=O)c2ccc(O)cc2)cc1)c1ccc(O)cc1 | > 100 µM (inactive) | > 100 µM (inactive) | > 100 µM (inactive) | > 100 | 58.1 µM (inactive) | > 10 µM (inactive) | > 100 µM (inactive) | > 100 µM (inactive) | > 100 µM (inactive) |  |  | > 100 µM (inactive) | > 100 µM (inactive) | > 100 µM (inactive) | > 100 µM (inactive) | > 100 µM (inactive) | > 100 µM (inactive) | > 100 µM (inactive) | > 100 µM (inactive) | > 100 µM (inactive)
